# Legend:
# TDO (A172 cells) = target: T1, TDO (A172 cells) (Homo sapiens, UniProt P48775); experiment: TDO cell-based assay (A172), kynurenine production; conditions: A172 human glioblastoma cells, 500 μM L-Trp, 48 h, kynurenine by absorbance at 490 nm
# T1 construct: This assay utilised cancer cells which expressed either TDO or IDO; host or cells: A172 human glioblastoma cells
# Method in brief: (§1)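 SKOV-3 cells (IDO, induced with 500 ng/ml IFNγ) or A172 glioblastoma cells (TDO) were incubated with compound and 500 μM L-Trp for 48 h at 37 °C in phenol-red-free RPMI with dialysed serum. Supernatant kynurenine was measured with 1% Ehrlich's reagent as absorbance at 490 nm.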
# IDO (SKOV-3 cells) = target: T2, IDO (SKOV-3 cells) (Homo sapiens, UniProt P14902); experiment: IDO cell-based assay (SKOV-3, IFNγ-induced), kynurenine production; conditions: SKOV-3 ovary adenocarcinoma cells, IFNγ 500 ng/ml, 500 μM L-Trp, 48 h, kynurenine by absorbance at 490 nm
# T2 construct: This assay utilised cancer cells which expressed either TDO or IDO; host or cells: SKOV-3 ovary adenocarcinoma cells, IFNγ-induced
# T2 sequence (P14902 whole entry): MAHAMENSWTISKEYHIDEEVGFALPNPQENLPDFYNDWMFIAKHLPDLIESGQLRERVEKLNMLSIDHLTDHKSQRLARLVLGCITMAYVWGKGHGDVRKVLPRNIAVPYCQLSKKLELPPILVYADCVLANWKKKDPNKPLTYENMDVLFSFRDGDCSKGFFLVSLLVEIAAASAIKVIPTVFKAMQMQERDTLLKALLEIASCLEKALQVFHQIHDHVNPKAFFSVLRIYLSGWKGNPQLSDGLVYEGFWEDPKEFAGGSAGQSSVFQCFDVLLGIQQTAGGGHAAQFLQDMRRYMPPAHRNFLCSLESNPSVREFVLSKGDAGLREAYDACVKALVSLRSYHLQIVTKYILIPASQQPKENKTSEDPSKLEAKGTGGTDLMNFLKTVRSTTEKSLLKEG
# Method in brief: as §1
# T1 sequence (P48775 whole entry): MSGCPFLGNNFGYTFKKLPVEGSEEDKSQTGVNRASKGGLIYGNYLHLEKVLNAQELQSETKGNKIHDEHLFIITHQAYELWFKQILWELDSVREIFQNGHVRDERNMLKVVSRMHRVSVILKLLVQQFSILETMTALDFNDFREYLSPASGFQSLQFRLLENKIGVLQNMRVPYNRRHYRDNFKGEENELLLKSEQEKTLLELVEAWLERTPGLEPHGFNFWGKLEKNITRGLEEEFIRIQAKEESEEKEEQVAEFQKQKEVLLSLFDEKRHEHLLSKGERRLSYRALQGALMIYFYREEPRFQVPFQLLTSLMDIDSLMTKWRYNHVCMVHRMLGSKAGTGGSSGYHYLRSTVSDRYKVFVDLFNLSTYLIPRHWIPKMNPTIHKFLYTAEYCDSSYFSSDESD
SMILES,TDO cellular assay (A172) pIC50 (TDO (A172 cells)),IDO cellular assay (SKOV3) pIC50 (IDO (SKOV-3 cells)),IC50 (TDO (A172 cells); read-out: TDO cellular assay (A172) pIC50 (converted)) [µM],IC50 (IDO (SKOV-3 cells); read-out: IDO cellular assay (SKOV3) pIC50 (converted)) [µM]
C[C@@H](NC(=O)c1cc2cc(Cl)c(F)cc2[nH]1)c1ccccc1 [Compound 208],+ (+ = pIC50 4.50-<5.00),+++ (+++ = pIC50 ≥5.50),–,–
CC(C)Oc1ccc2[nH]c(C(=O)N[C@H](C)c3ccccc3)cc2c1 [Compound 260],+ (+ = pIC50 4.50-<5.00),+++ (+++ = pIC50 ≥5.50),–,–
CCc1ccc2[nH]c(C(=O)NC3(c4cnn(C)c4)CC3)cc2c1 [Compound 264],− (− = pIC50 <4.50),+++ (+++ = pIC50 ≥5.50),–,–
COc1ccc2[nH]c(C(=O)N[C@H](C)c3ccccc3)cc2c1 [Compound 175],− (− = pIC50 <4.50),+++ (+++ = pIC50 ≥5.50),–,–
COc1ccc(-c2noc(C(C)NC(=O)c3cc4cc(Cl)ccc4[nH]3)n2)cc1OC (stereo not drawn) [Compound 131],− (− = pIC50 <4.50),+++ (+++ = pIC50 ≥5.50),–,–
Cc1nc(C2(NC(=O)c3cc4cc(Cl)ccc4[nH]3)CC2)co1 [Compound 225],− (− = pIC50 <4.50),+++ (+++ = pIC50 ≥5.50),–,–
C[C@@H](NC(=O)c1cc2cc(Cl)ccc2[nH]1)c1ccccc1 [Compound 48],–,–,3.16 to 10,≤ 3.16
O=C(NCc1ccc(F)cc1)c1cc2cc(Cl)ccc2[nH]1 [Compound 28],− (− = pIC50 <4.50),+ (+ = pIC50 4.50-<5.00),–,–
Cn1cc(C2(NC(=O)c3cc4cc(Cl)ccc4[nH]3)CCCC2)cn1 [Compound 250],− (− = pIC50 <4.50),+++ (+++ = pIC50 ≥5.50),–,–
CC(NC(=O)c1cc2cc(Cl)ccc2[nH]1)c1ccc(N(C)C)cc1 (stereo not drawn) [Compound 87],+ (+ = pIC50 4.50-<5.00),+++ (+++ = pIC50 ≥5.50),–,–
C[C@@H](NC(=O)c1cc2cc(F)ccc2n1C)c1ccccc1 [Compound 46],− (− = pIC50 <4.50),++ (++ = pIC50 5.00-<5.50),–,–
COCCN(C)C(=O)c1ccc(C(C)NC(=O)c2cc3cc(Cl)ccc3[nH]2)cc1 (stereo not drawn) [Compound 93],+ (+ = pIC50 4.50-<5.00),+++ (+++ = pIC50 ≥5.50),–,–
CC(NC(=O)c1cc2cc(Cl)ccc2[nH]1)c1ccc(S(C)(=O)=O)cc1 (stereo not drawn) [Compound 84],++ (++ = pIC50 5.00-<5.50),+++ (+++ = pIC50 ≥5.50),–,–
CC(NC(=O)c1cc2cc(Cl)ccc2[nH]1)C1CC1 (stereo not drawn) [Compound 94],+ (+ = pIC50 4.50-<5.00),++ (++ = pIC50 5.00-<5.50),–,–
C[C@H](NC(=O)c1nc2ccccc2o1)c1ccccc1 [Compound 76],− (− = pIC50 <4.50),+ (+ = pIC50 4.50-<5.00),–,–
Cc1noc(C(C)NC(=O)c2cc3cc(Cl)ccc3[nH]2)n1 (stereo not drawn) [Compound 199],− (− = pIC50 <4.50),+++ (+++ = pIC50 ≥5.50),–,–
COCCc1noc(C(C)NC(=O)c2cc3cc(Cl)ccc3[nH]2)n1 (stereo not drawn) [Compound 130],− (− = pIC50 <4.50),++ (++ = pIC50 5.00-<5.50),–,–
O=C(NC1(c2ccc(F)cc2)COC1)c1cc2cc(Cl)ccc2[nH]1 [Compound 244],− (− = pIC50 <4.50),+++ (+++ = pIC50 ≥5.50),–,–
COc1cccc(-c2cc(CNC(=O)c3cc4cc(Cl)ccc4[nH]3)on2)c1 [Compound 109],− (− = pIC50 <4.50),++ (++ = pIC50 5.00-<5.50),–,–
O=C(NCc1ccc(F)cc1Cl)c1cc2ccccc2[nH]1 [Compound 31],− (− = pIC50 <4.50),+ (+ = pIC50 4.50-<5.00),–,–
Cn1ccc(C2(NC(=O)c3cc4cc(Cl)ccc4[nH]3)CC2)n1 [Compound 224],++ (++ = pIC50 5.00-<5.50),++ (++ = pIC50 5.00-<5.50),–,–
Cn1cc(C2(NC(=O)c3cc4cc(Cl)cc(F)c4[nH]3)CC2)cn1 [Compound 205],− (− = pIC50 <4.50),+++ (+++ = pIC50 ≥5.50),–,–
O=C(Nc1cccc2ncccc12)c1cc2cc(F)ccc2[nH]1 [Compound 41],− (− = pIC50 <4.50),+++ (+++ = pIC50 ≥5.50),–,–
CC(NC(=O)c1cc2cc(Cl)ccc2[nH]1)c1ccc(F)cc1 (stereo not drawn) [Compound 36],+ (+ = pIC50 4.50-<5.00),+++ (+++ = pIC50 ≥5.50),–,–
O=C(Nc1cccc2ccccc12)c1cc2cc(F)ccc2[nH]1 [Compound 51],− (− = pIC50 <4.50),+++ (+++ = pIC50 ≥5.50),–,–
CC(NC(=O)c1cc2cc(Cl)ccc2[nH]1)c1ccc(N2CCN(C)CC2)cc1 (stereo not drawn) [Compound 95],− (− = pIC50 <4.50),+ (+ = pIC50 4.50-<5.00),–,–
CCC(NC(=O)c1cc2cc(Cl)ccc2[nH]1)c1ccccc1 (stereo not drawn) [Compound 114],− (− = pIC50 <4.50),+++ (+++ = pIC50 ≥5.50),–,–
C[C@@H](c1ccccc1)N(C)C(=O)c1cc2cc(F)ccc2[nH]1 [Compound 59],− (− = pIC50 <4.50),+ (+ = pIC50 4.50-<5.00),–,–

# The remaining lines, values ahead:
TDO cellular assay (A172) pIC50 (TDO (A172 cells)),IDO cellular assay (SKOV3) pIC50 (IDO (SKOV-3 cells)),IC50 (TDO (A172 cells); read-out: TDO cellular assay (A172) pIC50 (converted)) [µM],IC50 (IDO (SKOV-3 cells); read-out: IDO cellular assay (SKOV3) pIC50 (converted)) [µM],SMILES
− (− = pIC50 <4.50),+ (+ = pIC50 4.50-<5.00),–,–,O=C(NCc1cccc(Cl)c1)c1cc2ccccc2[nH]1 [Compound 30]
++ (++ = pIC50 5.00-<5.50),+++ (+++ = pIC50 ≥5.50),–,–,CC(C)(NC(=O)c1cc2cc(Cl)ccc2[nH]1)c1ccccc1 [Compound 68]
− (− = pIC50 <4.50),++ (++ = pIC50 5.00-<5.50),–,–,COc1ccc2cc(C(=O)NC3(c4cnn(C)c4)CC3)[nH]c2c1 [Compound 167]
− (− = pIC50 <4.50),+++ (+++ = pIC50 ≥5.50),–,–,O=C(NC1(c2ccc(F)cc2)CC1)c1cc2cc(Cl)ccc2[nH]1 [Compound 138]
− (− = pIC50 <4.50),+++ (+++ = pIC50 ≥5.50),–,–,O=C(NC1(c2nc(-c3ccccc3)no2)CC1)c1cc2cc(Cl)ccc2[nH]1 [Compound 140]
− (− = pIC50 <4.50),+++ (+++ = pIC50 ≥5.50),–,–,CC(C)Oc1ccc2[nH]c(C(=O)NC3(c4ccccc4)CC3)cc2c1 [Compound 261]
− (− = pIC50 <4.50),+++ (+++ = pIC50 ≥5.50),–,–,O=C(NC1(c2cccnc2)CC1)c1cc2cc(Cl)ccc2[nH]1 [Compound 153]
− (− = pIC50 <4.50),+ (+ = pIC50 4.50-<5.00),–,–,O=C(NC1(c2ccccc2)CC1)c1cc2ccc(O)cc2[nH]1 [Compound 172]
++ (++ = pIC50 5.00-<5.50),+++ (+++ = pIC50 ≥5.50),–,–,C[C@@H](NC(=O)c1cc2cc(F)ccc2[nH]1)c1ccccc1 [Compound 43]
+ (+ = pIC50 4.50-<5.00),+++ (+++ = pIC50 ≥5.50),–,–,O=C(NC1(c2ccccc2)COC1)c1cc2cc(Cl)c(F)cc2[nH]1 [Compound 210]
+ (+ = pIC50 4.50-<5.00),+++ (+++ = pIC50 ≥5.50),–,–,C[C@@H](NC(=O)c1cc2ccc(F)cc2[nH]1)c1ccccc1 [Compound 44]
+++ (+++ = pIC50 ≥5.50),− (− = pIC50 <4.50),–,–,CC(NC(=O)c1cc2cc(C(N)=O)ccc2[nH]1)c1ccccc1 (stereo not drawn) [Compound 88]
− (− = pIC50 <4.50),+++ (+++ = pIC50 ≥5.50),–,–,O=C(NC1(c2ccccc2)CC1)c1cc2cc(OC(F)(F)F)ccc2[nH]1 [Compound 248]
− (− = pIC50 <4.50),+ (+ = pIC50 4.50-<5.00),–,–,O=C(NC1(c2ccccc2)COC1)c1cc2ccc(C(F)F)cc2[nH]1 [Compound 218]
